The source of these data is patent US20250304549A1, “HYDROXYAMIDE DERIVATIVE AND USE THEREOF” (SICHUAN HUIYU PHARMACEUTICAL CO., LTD., priority 2022, published 2025).

The target in one experiment is HDAC8 (Homo sapiens (Human), UniProt Q9BY41). In words: In vitro enzyme inhibition assay - HDAC (HDAC-Glo I/II), HDAC8. The experiment is classed as biochemical. Conditions: read-out: HDAC IC50 (nM) HDAC 8. The procedure:
2. In Vitro Enzyme Inhibition Assay—HDAC
The effect of the compound on the enzymatic activity of pan-HDAC and two isoforms (HDAC1 and HDAC8) was examined using the HDAC-Glo I/II Assay and Screening System assay to assess the level of inhibition of HDAC protease activity and selectivity in each isoform. The proteins and detection reagents were from the HDAC-Glo™ I/II Assay and Screening System (Promega). A 1 mM stock solution of the compound was prepared in DMSO and diluted in a 5-fold gradient to create a series of 8 concentrations, and a specific volume of the highest concentration was diluted 25 times with HDAC Buffer to obtain 4× working solution of the compound. […] The 384-well plate was then read on a multifunctional microplate reader, with the Luminescence channel selected to record Luminescence values (RLU). The inhibition rate was calculated using the following formula: […]
Note: ‘Negative’ refers to the group without the inhibitor; ‘Blank’ refers to the group without the enzyme.
The IC50 value was calculated by fitting the inhibition rate by GraphPad Prism software, employing log (inhibitor) vs. response-Variable Slope (four parameters) model.

In a further experiment the test system is NCI-H69 cells. Nature of the experiment: In vitro cell inhibition assay - NCI-H69 cell proliferation (CellTiter-Glo). The experiment is classed as cell-based. Conditions: Homo sapiens, NCI-H69, H69 small cell lung cancer cell proliferation. The procedure, abridged:
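Proliferation was assessed after a 7-day compound treatment of cells seeded at 1×10^3 per well. IC50 values came from fitting inhibition rates derived from CellTiter-Glo luminescence.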

The test system of the next experiment is NCI-H1417 cells. Nature of the experiment: In vitro cell inhibition assay - H1417 cell proliferation (CellTiter-Glo). The class given is cell-based. The settings on record: Homo sapiens, NCI-H1417, H1417 small cell lung cancer cell proliferation. The procedure, abridged:
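Cells exposed to 8 compound concentrations (5-fold dilutions) in BEGM with 10% FBS for 7 days at 37° C., 5% CO2. Viable cells measured by CellTiter-Glo luminescence; inhibition versus no-inhibitor and no-cell controls, IC50 fitted.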

The next experiment has as its target pan-HDAC. Nature of the experiment: In vitro enzyme inhibition assay - HDAC (HDAC-Glo I/II), pan-HDAC. The class given is biochemical. The procedure, abridged:
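Inhibition was measured with the HDAC-Glo I/II luminescent assay, testing compound as an 8-point, 5-fold dilution series from a 1 mM DMSO stock. Luminescence (RLU) was normalized to no-inhibitor and no-enzyme controls, and IC50 was derived by four-parameter variable-slope fitting.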

Another experiment concerns the target LSD1 (Homo sapiens (Human), UniProt O60341). Nature of the experiment: In vitro enzyme inhibition assay - LSD1 (HTRF). The class given is biochemical.

Molecules are shown by their SMILES. Where a name gives a salt, the structure may show the parent alone.

HDAC8, sequence (Q9BY41 whole entry): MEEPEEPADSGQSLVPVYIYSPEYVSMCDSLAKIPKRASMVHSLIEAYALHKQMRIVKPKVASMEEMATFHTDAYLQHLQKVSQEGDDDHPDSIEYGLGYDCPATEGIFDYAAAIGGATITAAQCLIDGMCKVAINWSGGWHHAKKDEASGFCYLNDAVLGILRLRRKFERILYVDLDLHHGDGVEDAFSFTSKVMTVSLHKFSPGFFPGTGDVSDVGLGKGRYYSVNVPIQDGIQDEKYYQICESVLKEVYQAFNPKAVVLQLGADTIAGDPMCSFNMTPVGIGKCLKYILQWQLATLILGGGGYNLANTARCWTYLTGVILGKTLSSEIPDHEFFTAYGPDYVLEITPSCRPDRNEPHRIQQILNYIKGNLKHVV

With `COc1ccc(-c2cnc(N3CCC(NCc4ccc5sc(C(=O)NO)cc5c4)CC3)c(C#N)c2-c2ccc(C#N)c(F)c2)cc1O` [Example 173, 5-(((1-(3-Cyano-4-(4-cyano-3-fluorophenyl)-5-(3-hydroxy-4-methoxyphenyl)pyridin-2-yl)piperidin-4-yl)amino)methyl)-N-hydroxybenzo[b] thiophene-2-carboxamide formate], the IC50 on HDAC8 stood at 252 nM; in the experiment with NCI-H69 cells it was 613 nM; with NCI-H1417 cells, 2.23 nM; on pan-HDAC, 114 nM; on LSD1 it was 0.82 nM.

As for `COc1ccc(-c2cnc(N3CCC(NCc4ccc(/C=C/C(=O)NO)o4)CC3)c(C#N)c2-c2ccc(C#N)c(F)c2)cc1O` [Example 178, (E)-3-(5-(((1-(3-Cyano-4-(4-cyano-3-fluorophenyl)-5-(3-hydroxy-4-methoxyphenyl)pyridin-2-yl)piperidin-4-yl)amino)methyl)furan-2-yl)-N-hydroxyacrylamide formate], the IC50 was 1710 nM at HDAC8; 906 nM in the experiment with NCI-H69 cells; 4.21 nM in the experiment with NCI-H1417 cells; 588 nM against pan-HDAC; 0.65 nM against LSD1.

Regarding `COc1ccc(-c2cnc(N3CCC(NCc4ccc(/C=C/C(=O)NO)c5[nH]ncc45)CC3)c(C#N)c2-c2ccc(C#N)c(F)c2)cc1O` [Example 180, (E)-3-(4-(((1-(3-Cyano-4-(4-cyano-3-fluorophenyl)-5-(3-hydroxy-4-methoxyphenyl)pyridin-2-yl)piperidin-4-yl)amino)methyl)-1H-indazol-7-yl)-N-hydroxyacrylamide formate], the IC50 on HDAC8 is 1240 nM; in the experiment with NCI-H69 cells it was 5040 nM; in the experiment on NCI-H1417 cells, 3.63 nM; against pan-HDAC, 23.4 nM; on LSD1, 0.11 nM.

For the compound `COc1ccc(-c2cnc(N3CCC(NCc4ccc(OC(C)C(=O)NO)cc4)CC3)c(C#N)c2-c2ccc(C#N)c(F)c2)cc1O` (stereo not shown) [Example 183, 2-(4-(((1-(3-Cyano-4-(4-cyano-3-fluorophenyl)-5-(3-hydroxy-4-methoxyphenyl)pyridin-2-yl)piperidin-4-yl)amino)methyl)phenoxy)-N-hydroxypropanamide formate], the IC50 on HDAC8 came out at 3720 nM; in the experiment with NCI-H69 cells it was 742 nM; in the experiment on NCI-H1417 cells it was 1.49 nM; against pan-HDAC it was 970 nM; at LSD1 it was 0.09 nM.

As for `CC(C)(O)COc1ccc(-c2cnc(N3CCC(NCc4cnc(CCC(=O)NO)s4)CC3)c(C#N)c2-c2ccc(C#N)c(F)c2)cc1O` [Example 185, 3-(5-((1-(3-Cyano-4-(4-cyano-3-fluorophenyl)-5-(3-hydroxy-4-(2-hydroxy-2-methylpropoxy)phenyl)pyridin-2-yl)piperidin-4-yl)amino)methyl)thiazol-2-yl)-N-hydroxypropanamide formate], the IC50 at HDAC8 amounted to 2160 nM; in the experiment with NCI-H69 cells, 275 nM; in the experiment with NCI-H1417 cells it was 6.16 nM; against pan-HDAC it was 60.1 nM; at LSD1 it was 3.9 nM.

Take `N#Cc1ccc(-c2c(-c3ccc(C(F)(F)F)c(O)c3)cnc(N3CCC(NCc4cnc(/C=C/C(=O)NO)nc4)CC3)c2C#N)cc1F` [Example 186, (E)-3-(5-(((1-(3-Cyano-4-(4-cyano-3-fluorophenyl)-5-(3-hydroxy-4-(trifluoromethyl)phenyl)pyridin-2-yl)piperidin-4-yl)amino)methyl)pyrimidin-2-yl)-N-hydroxyacrylamide formate]: the half-inhibitory concentration (IC50) on HDAC8 worked out at 50.9 nM; in the experiment with NCI-H69 cells it was 85 nM; with NCI-H1417 cells, 23.5 nM; on pan-HDAC, 11.9 nM; on LSD1 it was 10.2 nM.

With `N#Cc1ccc(-c2c(-c3ccc(C(F)(F)F)c(O)c3)cnc(N3CCC(NCc4ccc(CCC(=O)NO)cc4)CC3)c2C#N)cc1F` [Example 190, 3-(4-((1-(3-Cyano-4-(4-cyano-3-fluorophenyl)-5-(3-hydroxy-4-(trifluoromethyl)phenyl)pyridin-2-yl)piperidin-4-yl)amino)methyl) phenyl)-N-hydroxypropanamide formate], the IC50 at HDAC8 came to 336 nM; with NCI-H69 cells it was 93.4 nM; in the experiment with NCI-H1417 cells it was 7.33 nM; at pan-HDAC, 5.96 nM; on LSD1, 2.85 nM.

As for `COc1ccc(-c2cnc(N3CCC(NCc4ccc(CCC(=O)NO)c(C#N)c4)CC3)c(C#N)c2-c2ccc(C#N)c(F)c2)cc1O` [Example 193, 3-(2-Cyano-4-((1-(3-cyano-4-(4-cyano-3-fluorophenyl)-5-(3-hydroxy-4-methoxyphenyl)pyridin-2-yl)piperidin-4-yl)amino)methyl) phenyl)-N-hydroxypropanamide formate], the IC50 at HDAC8 is 297 nM; in the experiment on NCI-H69 cells, 221 nM; with NCI-H1417 cells, 12.6 nM; at pan-HDAC, 8.36 nM; against LSD1, 1.71 nM.

In the case of `CNc1ccc(-c2cnc(N3CCC(NCc4ccc(CCC(=O)NO)cn4)CC3)c(C#N)c2-c2ccc(C#N)c(F)c2)cc1O` [Example 194, 3-(6-((1-(3-Cyano-4-(4-cyano-3-fluorophenyl)-5-(3-hydroxy-4-(methylamino)phenyl)pyridin-2-yl)piperidin-4-yl)amino)methyl) pyridin-3-yl)-N-hydroxypropanamide hydrochloride], the IC50 stood at 543 nM at HDAC8; 1030 nM in the experiment with NCI-H69 cells; 119 nM in the experiment with NCI-H1417 cells; 7.27 nM at pan-HDAC; 1.09 nM on LSD1.

Turning to `N#Cc1ccc(-c2c(-c3ccc(C(F)(F)F)c(O)c3)cnc(N3CCC(NCc4cnc(CCC(=O)NO)nc4)CC3)c2C#N)cc1F` [Example 195, 3-(5-(1-(3-Cyano-4-(4-cyano-3-fluorophenyl)-5-(3-hydroxy-4-trifluoromethylphenyl)pyridin-2-yl)piperidin-4-ylamino)methyl) pyrimidin-2-yl)-N-hydroxypropanamide formate], the IC50 at HDAC8 is 172 nM; with NCI-H69 cells, 1670 nM; with NCI-H1417 cells, 52.4 nM; at pan-HDAC it was 11.8 nM; against LSD1, 4.12 nM.

With `CNc1ccc(-c2cnc(N3CCC(NCc4cnc(/C=C/C(=O)NO)nc4)CC3)c(C#N)c2-c2ccc(C#N)c(F)c2)cc1O` [Example 196, (E)-3-(5-(((1-(3-Cyano-4-(4-cyano-3-fluorophenyl)-5-(3-hydroxy-4-(methylamino)phenyl)pyridin-2-yl)piperidin-4-yl)amino)methyl)pyrimidin-2-yl)-N-hydroxyacrylamide hydrochloride], the IC50 on HDAC8 was found to be 26.5 nM; with NCI-H69 cells, 83.3 nM; in the experiment with NCI-H1417 cells, 39.3 nM; at pan-HDAC, 5.69 nM; on LSD1, 6.68 nM.

As to `CC(C)(O)COc1ccc(-c2cnc(N3CCC(NCc4ccc(CCC(=O)NO)nc4)CC3)c(C#N)c2-c2ccc(C#N)c(F)c2)cc1O` [Example 204, 3-(5-((((1-(3-Cyano-4-(4-cyano-3-fluorophenyl)-5-(3-hydroxy-4-(2-hydroxy-2-methylpropoxy)phenyl)pyridin-2-yl)piperidin-4-yl)amino)methyl)pyridin-2-yl)-N-hydroxypropanamide formate], the IC50 on HDAC8 came to 26.2 nM; in the experiment on NCI-H69 cells it was 89.2 nM; in the experiment on NCI-H1417 cells it was 5.14 nM; on pan-HDAC, 2.37 nM; against LSD1, 1.58 nM.

Consider `COc1ccc(-c2cnc(N3CCC(NCc4ccc(CCC(=O)NO)cc4)CC3)c(C)c2-c2ccc(C#N)c(F)c2)cc1O` [Example 209, 3-(4-(((1-(4-(4-Cyano-3-fluorophenyl)-5-(3-hydroxy-4-methoxyphenyl)-3-methylpyridin-2-yl)piperidin-4-yl)amino)methyl)phenyl)-N-hydroxypropanamide hydrochloride], for which the IC50 at HDAC8 stood at 3.09 nM; in the experiment with NCI-H69 cells, 40.3 nM; in the experiment with NCI-H1417 cells, 14.5 nM; against pan-HDAC, 163 nM; at LSD1, 0.6 nM.

With `COc1ccc(-c2cnc(N3CCC(NCc4ccc(/C=C/C(=O)NO)cc4C)CC3)c(C#N)c2-c2ccc(C#N)c(F)c2)cc1O` [Example 211, (E)-3-(4-(((1-(3-Cyano-4-(4-cyano-3-fluorophenyl)-5-(3-hydroxy-4-methoxyphenyl)pyridin-2-yl)piperidin-4-yl)amino)methyl)-3-methylphenyl)-N-hydroxyacrylamide formate], the IC50 on HDAC8 worked out at 83.5 nM; in the experiment on NCI-H69 cells, 189 nM; in the experiment on NCI-H1417 cells it was 10.7 nM; against pan-HDAC it was 2.04 nM; at LSD1, 0.31 nM.
